Assay [1] in a line: Second binding experiment: FITC-HMW-HA binding with holotransferrin, pH and cold competitors. Further details: key to FITC-HMW-HA binding, +cold LMW-HA / FITC-HMW-HA binding, +cold HMW-HA: fluorescence counts normalized to peptide binding control = 100. Particulars: holotransferrin 10 ug/well; for FITC-HMW-HA binding, +cold HMW-HA: HMW-HA 10 ug/well; for FITC-HMW-HA binding, +cold LMW-HA: LMW-HA hexamer 10 ug/well; for FITC-HMW-HA binding, +cold PIP2: excess PIP2 500 ng/well. How it is done:
Effects of pH, PIP2 and size classes: Streptavidin-coated 96-well plates (G-Biosciences, St. Louis, MO) were pre-loaded with biotinylated peptides [see Example 1] at 400 ng/well, at room temperature for 60 minutes. The plate was washed with PBS buffer and then 1 ug FITC-labelled heparin or hyaluronic acid (FITC-HMW-HA) in 100 uL PBS buffer was added per well (all tests done in quadruplicate). Incubation proceeded for 90 minutes at room temperature, followed by two PBS washes. The plate was read in a standard laboratory fluorometer (488/525 nm exitation/[…]) and the counts normalized for immX3 peptide binding=100. Values statistically above background are shown in bold font. **p<0.05 versus immX3AVD.
A second binding experiment was done as above, but using either 6 mM sodium phosphate buffer pH 7.4 or sodium citrate buffer pH 5.2 in the presence of FITC-HMW-HA (1.5 ug/well), holotransferrin (10 ug/well) and excess PIP2 (500 ng/well), LMW-HA (hexamer; 10 ug/well) or HMW-HA (10 ug/well). **p<0.05 versus peptide binding control (=100);

Assay [2] relates to C2C12 myoblastic cell line. Nature of the assay: C2C12 myoblast differentiation, creatine kinase. The format is cell-based. To be noted: 0.66 uM peptide, 96 hours, relative to immX3AVD = 100. How it is done: Differentiation assays employed the C2C12 myoblastic cell line (ATCC, Manassas, VA) seeded at 2×10e5 cells per well in 96-well plates and cultured at 37 degrees C. in DMEM growth medium plus 10% fetal bovine serum and 1% penicillin/streptomycin. For differentiation, 10% fetal bovine serum was replaced with 2% horse serum. 0.66 uM peptide was then added, and incubation continued for an additional 96 hours. Plates with adherent cells were washed with PBS, lysed with Lytic-M buffer (Sigma Chemical Company, St. Louis, MO) and the lysates were assayed for creatine kinase using a kit purchased from Bioassay Systems (Cat. #ECPK-100, Hayward, CA). Effects were visually confirmed with microscopy tracking myotube formation. Results were expressed as units per milliliter relative to the control immX3AVD peptide, and p values were also calculated and shown relative to control immX3AVD peptide (** p<0.05 versus immX3AVD control; avg±SD).

Marks after values point to notes of the source that are not given here. Peptide text beside a SMILES is read from it.

In the case of `CC(C)[C@H](NC(=O)[C@H](C)NC(=O)[C@H](Cc1c[nH]c2ccccc12)NC(=O)[C@H](CS)NC(=O)[C@H](Cc1ccccc1)NC(=O)CNC(=O)[C@H](CCCNC(=N)N)NC(=O)[C@H](CCCCN)NC(=O)[C@H](CCCNC(=N)N)NC(=O)CNC(=O)[C@H](CCCCN)NC(=O)[C@H](CO)NC(=O)[C@@H]1CCCN1C(=O)[C@H](CCCNC(=N)N)NC(=O)[C@H](CS)NC(=O)[C@H](CCC(N)=O)NC(=O)[C@H](CCCCN)NC(=O)[C@H](CCCCN)NC(=O)[C@H](CCCCN)NC(=O)[C@H](Cc1ccc(O)cc1)NC(=O)[C@H](Cc1ccccc1)NC(=O)CNC(=O)[C@H](CCCCN)NC(=O)[C@@H](N)CCCCN)C(=O)N[C@@H](CC(=O)O)C(=O)O` [immX3AVD] (H-KKGFYKKKQCRPSKGRKRGFCWAVD-OH), the “FITC-HMW-HA binding, CONTROL” value is 140.0 ± 16.7** in assay [1] (pH 5.2) and 100.0 ± 8.3 in assay [1] (pH 7.4, peptide binding control = 100). Besides, the “FITC-HMW-HA binding, +cold HMW-HA” value in assay [1] (pH 5.2) was 12.5 ± 7.1**; in assay [1] (pH 7.4), 18.5 ± 3.7**. Further, the “FITC-HMW-HA binding, +cold LMW-HA” value in assay [1] (pH 5.2) is 100.6 ± 15.9; in assay [1] (pH 7.4) it was 92.6 ± 11.8**. For the same compound, the “FITC-HMW-HA binding, +cold PIP2” value in assay [1] (pH 5.2) was 92.2 ± 29.4; in assay [1] (pH 7.4), 10.4 ± 8.2**. Further, the “Creatine Kinase Act.” value is on record as 140.3 ± 8.3** units per milliliter in assay [2] (helper D-raffinose (1 mM)); 67.4 ± 5.2** units per milliliter in assay [2] (helper GW 3965 (2 uM)); 174.2 ± 5.0** units per milliliter in assay [2] (helper GW 501516 (2 uM)); 161.5 ± 6.5** units per milliliter in assay [2] (helper L-ornithine (1 mM)); 120.6 ± 2.5** units per milliliter in assay [2] (helper Tf (holotransferrin 2 ug/ml)); 33.2 ± 3.2 # units per milliliter in assay [2] (helper Tf + HMW-HA (2 ug/ml)). The results for the “Creatine Kinase Act.” value in assay [2] (helper Tf + LMW-HA (2 ug/ml)), in assay [2] (helper ciprofibrate (2 uM)) and in assay [2] (helper none) were 136.7 ± 13.3 units per milliliter, 109.4 ± 3.2** units per milliliter and 100.0 ± 2.2 units per milliliter, respectively.

(Values after patent US20240034761A1, “REGENERATION OF MAMMALIAN TISSUES USING SYNTHETIC IMMODULINS” (priority 2022, published 2024).)
